We go through 17 compounds from patent US20230233533A1, “COMPOSITIONS, METHODS OF TREATING AND PREVENTING FUNGAL INFECTIONS, AND METHODS OF INHIBITING PRP8 INTEIN EXPRESSION” (Health Research, Inc., priority 2020, published 2023).

Values after ≈ are worked out from the molar mass of the structure shown. Bounds are passed on as bounds.

The subject of series [1] is C. neoformans H99 strain. Kind of series: Fungal susceptibility test, broth microdilution MIC. The format is cell-based, Cryptococcus neoformans. The conditions noted are these: Cryptococcus neoformans, H99STRAIN; C. neoformans H99, microbroth dilution; read-out: MIC H99. Here is the method:
Fungal susceptibility test—The fungal susceptibility test was carried out with a compound concentration series as described. […] The broth microdilution method was used to determine the compound MIC values against C. neoformans.
Fungal susceptibility test—The fungal susceptibility test was carried out with a compound concentration series as described. […] Microbes. Infect. […] The broth microdilution method was used to determine the compound MIC values against C. neoformans.
(In general: In broth dilution the organism is exposed to a series of concentrations in liquid medium.)

The target of series [2] is T1, Prp8 intein (Cryptococcus gattii, UniProt E6R027). Kind of series: Split GFP-Prp8i intein splicing assay. Type of series: biochemical. The settings on record: split GFP-Prp8 intein splicing. Here is the method:
Cloning, expression and purfication—The split GFP-Prp8i was constructed using a mega-PCR mutagenesis approach. […] After digestion with Dpn I restriction enzyme, the PCR product was transformed into DH5α Escherichia coli. Clones were verified by plasmid DNA sequencing. The expression, refolding and purification of the GFP-Prp8i fusion protein were carried out as described previously.
[…] Then 100 μl 2×TCEP was added to a final concentration of 20 μM. The reactions were incubated at 25° C. overnight. […] Two readings were taken, one prior to addition of TCEP (I0) and one after incubation overnight with TCEP (If). Fluorescence/luminescence differences (ΔFluorescence or ΔLuminescence) were defined as If−I0 for each well. […] DMF control served as 100% splicing activity.
Split GFP-Prp8 and CJGFP-Prp8 intein splicing assays—Using black and clear bottom 96-well plates, the DPNB-treated, -refolded and -concentrated GFP-Prp8 or CfGFP-Prp8 fusion protein (0.5 μM) was incubated with compounds or Dimethylsulfoxide (DMSO) solvent control for 30 min at 25° C. in a 100 μl intein splicing buffer (20 mM Bis-tris propane, 0.5 M NaCl, 0.5 M arginine, 1 mM EDTA, and 0.05% CHAPS). Then 100 μl 2×TCEP was added to a final concentration of 20 μM. The reactions were incubated at 25° C. overnight. […] Two readings were taken, one prior to addition of TCEP (I0) and one after incubation overnight with TCEP (If). Fluorescence/luminescence differences (ΔFluorescence or ΔLuminescence) were defined as If−I0 for each well. […] DMSO control served as 100% splicing activity.

Series [3] can be described thus: in vitro. Type of series: cell-based, human. The settings on record: human, CC50 A549. Here is the method:
Cytotoxicity—Cytotoxicity assays were carried out using human lung carcinoma cell line A549, as described (Chen et al., “Selective Inhibition of the West Nile Virus Methyltransferase by Nucleoside Analogs,” Antiviral Research 97(3):232-239 (2013), which is hereby incorporated by reference in its entirety). Briefly, the A549 cells (5×10^3) were incubated with/without compounds in a 96-well plate at 37° C. for 48 h. Cell viability was determined using the MTT assay (ATCC) as was described previously (Chen et al., “Selective Inhibition of the West Nile Virus Methyltransferase by Nucleoside Analogs,” Antiviral Research 97(3):232-239 (2013) and Brecher et al., “Identification and Characterization of Novel Broad-Spectrum Inhibitors of the Flavivirus Methyltransferase,” ACS Infectious Diseases 1(8):340-349 (2015), both of which are hereby incorporated by reference in their entirety). N=3.
Cytotoxicity—Cytotoxicity assays were carried out using human lung carcinoma cell line A549, as described. Chen et al., “Selective Inhibition of the West Nile Virus Methyltransferase by Nucleoside Analogs,” Antiviral Res. 97:232-9 (2013), which is hereby incorporated by reference in its entirety. Briefly, the A549 cells (5×10^3) were incubated with/without compounds in a 96-well plate at 37° C. for 48 h. Cell viability was determined using the MTT assay (ATCC) as was described previously (Chen et al., “Selective Inhibition of the West Nile Virus Methyltransferase by Nucleoside Analogs,” Antiviral Research 97(3):232-239 (2013) and Brecher et al., “Identification and Characterization of Novel Broad-Spectrum Inhibitors of the Flavivirus Methyltransferase,” ACS Infectious Diseases 1(8):340-349 (2015), both of which are hereby incorporated by reference in their entirety). N=3.

Series [4] deals with T1, Prp8 intein. Kind of series: Split Renilla luciferase RLuc-Prp8 intein splicing assay. The format is biochemical. The conditions noted are these: split Renilla luciferase RLuc-Prp8 intein splicing. Here is the method:
Split luciferase Prp8 intein splicing assay—The split RLuc-Prp8 fusion protein was carried out and monitored using a Veritas luminometer, as described previously.
Split luciferase RLuc-Prp8 and NnLuc-Prp8 intein splicing assays—The split RLuc-Prp8 intein splicing assay was carried out and monitored using a Veritas luminometer, as described previously. […] Microbes. Infect. […] For NnLuc-Prp8 intein splicing assay, the NnLuc-prp8 is diluted in assay buffer (50 mM Tris, 0.1% BSA, 1 mM EDTA, pH 7.4) and 50 ul is added to each well in 96 well black plates. Test molecules or the solvent was added and incubated for 30 to 60 min. A splicing inducer TCEP (50 ul, 100 μM) is added and incubated for 24 h. Luciferase substrate (Furimazine, 25 ul 1:10,000 diluted) is added and luminescence is read using a luminescence reader. IC50 is calculated using Graphpad prism.

T1 sequence (E6R027 entry or part of it): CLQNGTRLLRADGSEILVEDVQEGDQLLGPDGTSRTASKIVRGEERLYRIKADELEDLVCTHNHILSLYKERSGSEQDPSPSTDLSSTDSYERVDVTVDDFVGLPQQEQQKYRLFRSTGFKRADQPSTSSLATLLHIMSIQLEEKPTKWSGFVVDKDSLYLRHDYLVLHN

For `O=C(Nc1cc(F)cc(C(F)(F)F)c1)c1ncsc1S(=O)(=O)c1ccc(Cl)cc1` [JMX0522, 5-((4-Chlorophenyl)sulfonyl)-N-(3-fluoro-5-(trifluoromethyl)phenyl) thiazole-4-carboxamide], the MIC in series [1] is 100 µM (≈ 46.5 µg/mL). For the same compound, the results for the IC50 in series [2] and in series [4] were 23.5 µM and 20.2 µM, respectively. The compound also gave a half-maximal cytotoxic concentration (CC50) at 48 h in series [3] of 97.7 µM.
`O=C(Nc1ccc(C(F)(F)F)nc1)c1ncsc1S(=O)(=O)c1ccc(Cl)cc1` [JMX0523, 5-((4-Chlorophenyl)sulfonyl)-N-(6-(trifluoromethyl)pyridin-3-yl) thiazole-4-carboxamide]: the MIC in series [1] was above 100 µM. For the same compound, the IC50 in series [2] is above 50 µM; in series [4] it was 37.1 µM. The compound further returned a CC50 at 48 h in series [3] of 114 µM.
`O=C(Nc1ccc(F)nc1)c1ncsc1S(=O)(=O)c1ccc(Cl)cc1` [JMX0524, 5-((4-Chlorophenyl)sulfonyl)-N-(6-fluoropyridin-3-yl)thiazole-4-carboxamide]: the MIC in series [1] is above 100 µM. In addition, the IC50 in series [2] is above 50 µM; in series [4], 7.8 µM. Also, the CC50 at 48 h in series [3] is 174 µM.
Take `O=C(Nc1ccc(F)cc1)c1ncsc1S(=O)(=O)c1ccc(Cl)cc1` [JMX0525, 5-((4-Chlorophenyl)sulfonyl)-N-(4-fluorophenyl)thiazole-4-carboxamide]: in series [1], the MIC is above 100 µM. Also, the figures for the IC50 in series [2] and in series [4] were above 50 µM and 6.4 µM, respectively. In series [3], this compound had a CC50 at 48 h of 309 µM.
With `O=C(NCc1ccc(F)cc1)c1ncsc1S(=O)(=O)c1ccc(Cl)cc1` [JMX0541, 5-((4-Chlorophenyl)sulfonyl)-N-(4-fluorobenzyl)thiazole-4-carboxamide], in series [1], the MIC came to 100 µM (≈ 41.1 µg/mL). The IC50 in series [2] was above 50 µM; in series [4], 10.6 µM. In addition, the midpoint of cytotoxicity in series [3], the CC50 at 48 h, lay at 114 µM.
As for `O=C(Nc1ccc(F)cc1)c1nnsc1Sc1ccc(Cl)cc1` [JMX0564, 5-((4-Chlorophenyl)thio)-N-(4-fluorophenyl)-1,2,3-thiadiazole-4-carboxamide], the MIC in series [1] is above 100 µM. The results for the IC50 in series [2] and in series [4] were 55.7 µM and 15.8 µM, respectively. This compound displayed a CC50 at 48 h in series [3] of 418 µM.
Take `O=C(Nc1ccc(F)cc1)c1nnsc1[S+]([O-])c1ccc(Cl)cc1` (centres unmarked) [JMX0565-1, 5-((4-Chlorophenyl)sulfinyl)-N-(4-fluorophenyl)-1,2,3-thiadiazole-4-carboxamide]: the MIC in series [1] is 0.097 µM (≈ 0.037 µg/mL). The IC50 in series [2] turned out to be 7.1 µM; in series [4], 16.6 µM. The same compound had a cytotoxic concentration (CC50) at 48 h in series [3] of 32.5 µM.
For `O=C(Nc1ccc(F)cc1F)c1nnsc1Sc1ccc(Cl)cc1` [JMX0569, 5-((4-Chlorophenyl)thio)-N-(2,4-difluorophenyl)-1,2,3-thiadiazole-4-carboxamide], the MIC in series [1] was above 100 µM. Also, the results for the IC50 in series [2] and in series [4] were above 50 µM and 36.2 µM, respectively. The cytotoxic concentration (CC50) at 48 h in series [3] stood at 186 µM.
In the case of `O=C(Nc1ccc(Cl)cc1)c1nnsc1Sc1ccc(Cl)cc1` [JMX0570, N-(4-Chlorophenyl)-5-((4-chlorophenyl)thio)-1,2,3-thiadiazole-4-carboxamide], the MIC in series [1] was above 100 µM. For the same compound, the IC50 was 38.7 µM in series [2] and 21.6 µM in series [4]. In series [3], this compound returned a CC50 at 48 h of 83.7 µM.
For `O=C(Nc1ccc(Cl)cc1)c1nnsc1S(=O)(=O)c1ccc(Cl)cc1` [JMX0571, N-(4-Chlorophenyl)-5-((4-chlorophenyl)sulfonyl)-1,2,3-thiadiazole-4-carboxamide], in series [1], the MIC was determined as 0.39 µM (≈ 0.162 µg/mL). Besides, the results for the IC50 in series [2] and in series [4] were 1.8 µM and 12.6 µM, respectively. Also, in series [3], the 50% cytotoxic concentration (CC50) at 48 h is 33.8 µM.
Regarding `O=C(NCc1ccc(F)cc1)c1nnsc1Sc1ccc(Cl)cc1` [JMX0573, 5-((4-Chlorophenyl)thio)-N-(4-fluorobenzyl)-1,2,3-thiadiazole-4-carboxamide], in series [1], the MIC is above 100 µM. The values for the IC50 in series [2] and in series [4] were above 50 µM and 5.5 µM, respectively. Also, the CC50 at 48 h in series [3] was determined as 282 µM.
With `O=C(NCc1ccc(F)cc1)c1nnsc1S(=O)(=O)c1ccc(Cl)cc1` [JMX0574, 5-((4-Chlorophenyl)sulfonyl)-N-(4-fluorobenzyl)-1,2,3-thiadiazole-4-carboxamide], the MIC in series [1] was found to be 0.78 µM (≈ 0.321 µg/mL). Also, the 50% inhibitory concentration (IC50) in series [2] was 1.6 µM; in series [4] it was 59.1 µM. Besides, in series [3], half-maximal cytotoxicity (CC50 at 48 h) was put at 21.5 µM.
With `O=C(Nc1ccc(C(F)(F)F)cc1)c1nnsc1Sc1ccc(Cl)cc1` [JMX0575, 5-((4-Chlorophenyl)thio)-N-(4-(trifluoromethyl)phenyl)-1,2,3-thiadiazole-4-carboxamide], the MIC in series [1] is above 100 µM. The IC50 in series [2] was above 50 µM; in series [4], 21.5 µM. This compound also came in with a CC50 at 48 h in series [3] of 271 µM.
Turning to `O=C(Nc1ccc(C(F)(F)F)cc1)c1nnsc1S(=O)(=O)c1ccc(Cl)cc1` [JMX0576, 5-((4-Chlorophenyl)sulfonyl)-N-(4-(trifluoromethyl)phenyl)-1,2,3-thiadiazole-4-carboxamide], in series [1], the minimum inhibitory concentration (MIC) worked out at 0.78 µM (≈ 0.349 µg/mL). Besides, the IC50 came out at 0.9 µM in series [2] and 11.9 µM in series [4]. Besides, the CC50 at 48 h in series [3] came to 40.3 µM.
The like results for `O=C(Nc1ccc(F)cc1)c1nnc(Sc2ccc(Cl)cc2)s1` [JMX0584, 5-((4-chlorophenyl)thio)-N-(4-fluorophenyl)-1,3,4-thiadiazole-2-carboxamide] were, in that order, above 100 µM, above 50 µM, 11 µM and above 150 µM.
For `O=C(Nc1ccc(F)cc1)c1nnc(S(=O)(=O)c2ccc(Cl)cc2)s1` [JMX0585-1, 5-((4-chlorophenyl)sulfonyl)-N-(4-fluorophenyl)-1,3,4-thiadiazole-2-carboxamide], in series [1], the MIC turned out to be 3.12 µM (≈ 1.24 µg/mL). For the same compound, the IC50 was 5.7 µM in series [2] and 19.4 µM in series [4]. The compound further returned a CC50 at 48 h in series [3] of 26 µM.
With `O=C(Nc1ccc(F)cc1)c1nnc([S+]([O-])c2ccc(Cl)cc2)s1` (centres unmarked) [JMX0585-2, 5-((4-chlorophenyl)sulfinyl)-N-(4-fluorophenyl)-1,3,4-thiadiazole-2-carboxamide], the MIC in series [1] came to 0.097 µM (≈ 0.037 µg/mL). In addition, the figures for the IC50 in series [2] and in series [4] were 4.5 µM and 20.9 µM, respectively. The same compound yielded a CC50 at 48 h in series [3] of 28.5 µM.

For orientation: MIC means the least concentration at which growth counts as inhibited. A word on the IC50: it is the concentration that gives 50% inhibition. Lower therefore signals inhibition by little substance. In general, CC50 refers to the concentration at which the toxic effect on the cells reaches its halfway point. Read a low CC50 as greater toxicity to the cells.
